Data published in the SangsterLogP compilation.

Key:
[1] = method code SF, from DOI: 10.1002/ps.2780340212; details: pH 7.0
[2] = method code SF-GLC, from DOI: 10.1002/jps.2600600712, PMID: 4398902
[3] = not given; remark: listed apart in the source
[4] = not given; remark: listed apart in the source
[5] = not given; remark: listed apart in the source
[6] = not given; remark: listed apart in the source
[7] = method code SF-HPLC, from DOI: 10.1002/ps.2780190203; details: pH 1.0
[8] = method code SF-AS, from DOI: 10.1111/j.1440-1681.1976.tb00621.x, PMID: 10116
[9] = method code SF-AS, from DOI: 10.1021/jm00299a013, PMID: 5458368
[10] = method code SF-AS, from DOI: 10.1016/0009-2797(77)90097-7, PMID: 407012; details: pH 7.0
[11] = not given; remark: listed apart in the source
[12] = method code SF-GLC, from DOI: 10.1021/je00020a050
[13] = from Bazaco, J.; Coca, C. (1989). Relation between the partition coefficient (Log Pow) and capacity factor (Log k') derived from reversed-phase HPLC of a series of benzaldehyde derivatives. Ciencia e …
[14] = method code SF-AS, from DOI: 10.1248/cpb.36.1393
[15] = method code SF-HPLC, from DOI: 10.1002/etc.5620110812
[16] = method code SF-RC, from DOI: 10.1002/ps.2780300102; details: pH 1.0
[17] = method code SF-RC, from DOI: 10.1021/jm201482p, PMID: 22339166; details: pH 6.8
[18] = method code SF-AS, from DOI: 10.1016/0378-5173(80)90117-9
[19] = not given; remark: listed apart in the source
[20] = method code SF-AS, from DOI: 10.1248/cpb.35.377
[21] = method code SF-CR, from DOI: 10.1248/cpb.21.2417, PMID: 4779830; details: pH 6.0
[22] = method code SF-AS, from Holmes, L.; Lough, E. (1976). Effect of Intramolecular Hydrogen Bonding on Partition Coefficients [Technical Note]. Defence Research Establishment Suffield.
[23] = method code SF, from Dai, J-Y.; Han, S.; Wang, L. (2000). Prediction of partition properties of substituted benzaldehydes using different structural parameters. Zhongguo Huanjing Kexue (China Environmental Science), …
[24] = method code SF-HPLC, from DOI: 10.1002/jps.2600831027, PMID: 7884677; details: pH 2.0
[25] = method code SF-MS, from DOI: 10.1016/j.fluid.2014.01.017; details: pH 7.6
[26] = method code SF-AS, from DOI: 10.1248/cpb.26.2824
[27] = not given; remark: listed apart in the source
[28] = from Rich, R. (1990). Partition coefficients of quinones and their relation to biochemical reactivity. In Lenaz, G. (Ed.), Highlights in Ubiquinone Research: Proceedings of the International Symposium, …
[29] = not given; remark: listed apart in the source
[30] = method code SF-HPLC, from DOI: 10.1016/s0021-9673(01)83534-2
[31] = not given; remark: listed apart in the source
[32] = method code SF-RC, from DOI: 10.1111/j.2042-7158.1987.tb06949.x, PMID: 2882008; details: pH 1.0
[33] = method code SF-HPLC, from DOI: 10.1002/jat.2550130210, PMID: 8486911; details: pH 13.0
[34] = method code SF, from DOI: 10.1016/j.tca.2004.05.019
[35] = not given; remark: listed apart in the source
[36] = method code SF, from Brown, J.; Yu, N.; Cory, M.; Bicknell, R.; Taylor, D. (1978). In vivo evaluation of the radiosensitizing and cytotoxic properties of newly synthesized electron-affinic drugs. 3, 206-211.
[37] = not given; remark: listed apart in the source
[38] = method code SF, from PMID: 2704; details: pH 1.0
[39] = method code SF-HPLC, from DOI: 10.1002/jps.2600780218, PMID: 2715940; details: pH 7.4

## CCCCc1c(C)[nH]c(NCC)nc1=O
[1]
  logD: 2.2

## O=[N+]([O-])c1ccc(Oc2c(Cl)cc(Cl)cc2Cl)cc1
other
  logP: 4.97

## O=C1CCCCCCCN1
[2]
  logP: 0.67

## CC(C)c1ccc(C(=O)O)cc1
[3]
  logP: 3.24

## O=C1CCCCCCN1
[2]
  logP: 0.24

## CON=C(C#N)C(=O)N[C@@H](CS(C)(=O)=O)C(=O)O
[4]
  logP: -0.73

## O=C(O)Cn1c(=O)sc2cccc(Cl)c21
[5]
  logP: 2.21

## CCOCC(O)Cn1ccnc1[N+](=O)[O-] (centres undefined)
[6]
  logP: -0.07

## O=C(O)COc1cc(Cl)cc(Cl)c1
[7]
  logD: 2.84

## CCC(CC)(OC)C(=O)NC(N)=O
[8]
  logP: 0.96

## Cc1ncc([N+](=O)[O-])n1CCS(C)(=O)=O
[9]
  logP: -0.82

## C/C=C/OCC(O)Cn1ccnc1[N+](=O)[O-] (centres undefined)
[6]
  logP: 0.28

## CN(CO)c1nc(N(C)CO)nc(N(C)CO)n1
[10]
  logD: 0.4

## N#CCc1ccccc1
[11]
  logP: 1.47

## COc1c(Cl)cc(Cl)cc1Cl
[12]
  logP: 4.02

## COc1cccc(C=O)c1
[13]
  logP: 1.71

## [O-][n+]1ccc(Nc2ccc(O)cc2)c2ccc(Cl)cc21
[14]; pH 2.8
  logD: 1.23

## N#CSCSc1nc2ccccc2s1
[15]
  logP: 3.12

## CS(=O)(=O)c1ccc(CC(=O)O)cc1
[16]
  logD: 0.06

## CN(C)c1nc(Cl)nc(N(C)C)n1
[10]
  logD: 2.31

## O=c1[nH]c(=O)n([C@H]2CC(F)[C@@H](CO)O2)cc1I (some centres undefined)
[17]
  logD: -0.03

## O=C1OC(=O)c2c(Cl)c(Cl)c(Cl)c(Cl)c21
other
  logP: 3.09

## COc1ccc(O)cc1
[18]
  logP: 1.57

## CCc1ccc(C(=O)O)cc1
[3]
  logP: 2.85

## CN1CC(O)N(c2nnc(C(C)(C)C)s2)C1=O (centres undefined)
[19]
  logP: 1.45

## CCC(Cl)(CC)C(=O)NC(N)=O
[8]
  logP: 1.4

## Oc1ccc2ccccc2c1
[20]
  logP: 2.75

## CN(c1ccccn1)S(=O)(=O)c1ccc(N)cc1
[21]
  logD: 1.3

## CON(C)C(=O)Nc1ccc(Cl)c(Cl)c1
[19]
  logP: 3

## CCC(=O)c1ccc(O)cc1
[22]
  logP: 2.03

## O=Cc1ccc(Cl)c(Cl)c1
[23]
  logP: 2.53

## N#CCc1ccc(C(=O)O)cc1
[24]
  logD: 1.18

## CCCCCC/C=C/C=O
[25]
  logD: 3.11

## COc1cc(Cl)c(Cl)cc1OC
[12]
  logP: 3.11

## CN(C)S(=O)(=O)c1ccc(N)cc1
[21]
  logD: 0.67

## CCCCC/C=C\C=O
[25]
  logD: 2.38

## O=C(O)COc1ccc(Oc2ccc(Cl)cc2Cl)cc1
[7]
  logD: 4.51

## CCCCc1ccc(O)cc1
[18]
  logP: 3.65

## Cc1ccccc1C(=O)O
[26]
  logP: 2.18

## COCCCNc1nc(NC(C)C)nc(SC)n1
[27]
  logP: 2.96

## CC1=C(C)C(=O)C=CC1=O
[28]
  logP: 1.23

## CCCCn1ccc(=O)c(O)c1
[29]
  logP: 0.72

## COC(=O)c1cc([N+](=O)[O-])cc([N+](=O)[O-])c1
[30]
  logP: 1.84

## O=C(O)c1ccccc1[N+](=O)[O-]
[26]
  logP: 1.46

## S=C=Nc1cccc2c(N=C=S)cccc12
[31]
  logP: 4.43

## O=C(O)Cc1cccc(I)c1
[32]
  logD: 2.49

## CCCCCCCCN
[33]
  logD: 3.3

## CCn1ccc(=O)c(O)c1
[29]
  logP: -0.4

## O=Cc1ssc(=S)c1CCC(=O)O
[34]
  logP: 2.73

## Cc1ncc([N+](=O)[O-])n1CCS(=O)(=O)C(C)C
[9]
  logP: 0.13

## S=C=Nc1ccc(N=C=S)cc1
[31]
  logP: 2.8

## COc1c(Cl)c(Cl)cc(Cl)c1Cl
[35]
  logP: 4.68

## CS(=O)(=O)c1cccc(NC(N)=O)c1
[1]
  logD: -0.1

## CSc1nc(N=[N+]=[N-])nc(NC(C)C)n1
[27]
  logP: 3.27

## CCCCCC(C)(C)N
[33]
  logD: 2.19

## COCC(=O)Cn1ccnc1[N+](=O)[O-]
[36]
  logP: -0.26

## O=C(O)CNC(=O)c1ccccc1I
[37]
  logP: 1.08

## Cc1ccccc1OCC(=O)O
[38]
  logD: 1.96

## CON=C(C#N)C(=O)N[C@@H](CSC)C(=O)O
[4]
  logP: 0.52

## COc1c(Cl)cc(Cl)c(Cl)c1Cl
[35]
  logP: 4.75

## CC(=O)Nc1ccc(C#N)cc1
[39]
  logD: 1.36

## O=C(O)Cc1ccc(Cl)cc1
[16]
  logD: 2.2

## CC(=O)Nc1ccc(C(=O)O)c(O)c1
[32]
  logD: 1.62

## Sc1nc2ccccc2s1
[15]
  logP: 2.41

## COC(=O)COc1ccccc1C
[38]
  logD: 2.08

## CC(=O)N(C)c1ccc([N+](=O)[O-])cc1
[39]
  logD: 0.91

## Cc1ssc(=S)c1CCC(=O)O
[34]
  logP: 2.04

## O=C(O)Cc1ccc(Cl)c(Cl)c1
[5]
  logP: 2.9

## NC(=O)Cc1ccc(C(=O)O)cc1
[24]
  logD: 0.3

## CCC(=O)c1ccccc1O
[22]
  logP: 2.54

## CC(C)(C)c1cc(C(C)(C)C)c2c(c1F)CO[P@@](=O)(OC[C@H]1O[C@@H](n3cc(I)c(=O)[nH]c3=O)C[C@@H]1O)O2
[17]
  logD: 2.23

## O=C(O)CCc1ccc(I)cc1
[37]
  logP: 2.81

## OCc1cc(Cl)cc(Cl)c1
[20]
  logP: 2.9

## Clc1ccc2c(Cl)ccnc2c1
[14]; pH 7.4
  logD: 3.57

## CC(=O)c1ccccc1
[11]
  logP: 1.71

## CC(C)=NNc1ccc([N+](=O)[O-])cc1[N+](=O)[O-]
[30]
  logP: 3.05

## CCS(=O)(=O)CCn1ccnc1[N+](=O)[O-]
[36]
  logP: -0.58

## COc1ccc(C=O)cc1OC
[13]
  logP: 1.22

## COc1c(O)ccc(O)c1OC
[28]
  logP: 0.61
